{"source": "patent US8426345B2", "about": "“Method of drug design” (Alchemia Limited, priority 2005, dated 2013)", "biological_target": "T1, Human SST5 somatostatin receptor (Homo sapiens, UniProt P35346)", "T1 construct": "expressed in transfected cells; host or cells: HEK-293 EBNA cells (membranes)", "T1 sequence (P35346 whole entry)": "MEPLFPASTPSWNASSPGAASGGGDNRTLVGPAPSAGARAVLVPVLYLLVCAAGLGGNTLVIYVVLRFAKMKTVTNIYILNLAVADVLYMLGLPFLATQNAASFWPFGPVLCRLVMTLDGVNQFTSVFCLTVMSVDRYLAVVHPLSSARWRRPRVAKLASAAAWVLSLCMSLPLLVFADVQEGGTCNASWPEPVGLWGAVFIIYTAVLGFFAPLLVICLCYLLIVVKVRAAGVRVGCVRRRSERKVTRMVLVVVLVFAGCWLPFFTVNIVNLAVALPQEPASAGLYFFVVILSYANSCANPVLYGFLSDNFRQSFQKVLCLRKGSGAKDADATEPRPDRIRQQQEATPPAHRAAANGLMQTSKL", "assay": "Filter plate radio-ligand binding assay for SST5 receptor ([125I]SST-14 displacement)", "settings": "for % SST5 radio-ligand binding displaced at conc 0.25: conc 0.25 μM; for % SST5 radio-ligand binding displaced at conc 0.25 / % SST5 radio-ligand binding displaced at conc 1.0: 3P library; for % SST5 radio-ligand binding displaced at conc 1.0: conc 1.0 μM; for % SST5 radio-ligand binding displaced at conc 50: compound conc 50 μM; for % SST5 radio-ligand binding displaced at conc 50 / % SST5 radio-ligand binding displaced at conc 250 / % SST5 radio-ligand binding displaced at conc 500: 2P library; for % SST5 radio-ligand binding displaced at conc 250: compound conc 250 μM; for % SST5 radio-ligand binding displaced at conc 500: compound conc 500 μM", "data": [{"smiles": "COC1C(O)C(COCc2ccc(Cl)cc2)OC(OCc2ccc3ccccc3c2)C1NC(=O)CCN", "note": "(single isomer, unassigned) [Compound 94]", "values": [{"measurement": "% SST5 radio-ligand binding displaced at conc 0.25", "result": "− (% SST5 radio-ligand binding displaced at cone (μM) −<40%)"}, {"measurement": "% SST5 radio-ligand binding displaced at conc 1.0", "result": "− (% SST5 radio-ligand binding displaced at cone (μM) −<40%)"}]}, {"smiles": "CO[C@H]1[C@H](O)[C@@H](COCc2ccc(Cl)cc2)OC(OCc2ccc3ccccc3c2)[C@@H]1NC(=O)CCN", "note": "(single isomer, unassigned) [Compound 95]", "values": [{"measurement": "% SST5 radio-ligand binding displaced at conc 0.25", "result": "− (% SST5 radio-ligand binding displaced at cone (μM) −<40%)"}, {"measurement": "% SST5 radio-ligand binding displaced at conc 1.0", "result": "− (% SST5 radio-ligand binding displaced at cone (μM) −<40%)"}]}, {"smiles": "CO[C@H]1[C@H](O)[C@@H](COCc2ccc(-c3ccccc3)cc2)OC(OCc2ccc3ccccc3c2)[C@@H]1NC(=O)CCN", "note": "(single isomer, unassigned) [Compound 96]", "values": [{"measurement": "% SST5 radio-ligand binding displaced at conc 0.25", "result": "− (% SST5 radio-ligand binding displaced at cone (μM) −<40%)"}, {"measurement": "% SST5 radio-ligand binding displaced at conc 1.0", "result": "− (% SST5 radio-ligand binding displaced at cone (μM) −<40%)"}]}, {"smiles": "COC[C@H]1OC(OCc2ccc(Cl)cc2)[C@H](NC(=O)CN)[C@@H](OCc2ccccc2)[C@@H]1O", "note": "(single isomer, unassigned) [Compound 168]", "values": [{"measurement": "% SST5 radio-ligand binding displaced at conc 0.25", "result": "− (% SST5 radio-ligand binding displaced at cone (μM) −<40%)"}, {"measurement": "% SST5 radio-ligand binding displaced at conc 1.0", "result": "− (% SST5 radio-ligand binding displaced at cone (μM) −<40%)"}]}, {"smiles": "COC[C@H]1OC(OCc2ccc(Cl)cc2)[C@H](NC(=O)CN)[C@@H](OCc2ccccc2)[C@@H]1O", "note": "(single isomer, unassigned) [Compound 169]", "values": [{"measurement": "% SST5 radio-ligand binding displaced at conc 0.25", "result": "− (% SST5 radio-ligand binding displaced at cone (μM) −<40%)"}, {"measurement": "% SST5 radio-ligand binding displaced at conc 1.0", "result": "− (% SST5 radio-ligand binding displaced at cone (μM) −<40%)"}]}, {"smiles": "COC[C@H]1OC(OCc2ccc(Cl)cc2)[C@H](NC(=O)CN)[C@@H](OCc2ccc(Cl)cc2)[C@@H]1O", "note": "(single isomer, unassigned) [Compound 170]", "values": [{"measurement": "% SST5 radio-ligand binding displaced at conc 0.25", "result": "− (% SST5 radio-ligand binding displaced at cone (μM) −<40%)"}, {"measurement": "% SST5 radio-ligand binding displaced at conc 1.0", "result": "− (% SST5 radio-ligand binding displaced at cone (μM) −<40%)"}]}, {"smiles": "COC[C@H]1OC(OCc2ccc(Cl)cc2)[C@H](NC(=O)CN)[C@@H](OCc2ccc(Cl)cc2)[C@@H]1O", "note": "(single isomer, unassigned) [Compound 171]", "values": [{"measurement": "% SST5 radio-ligand binding displaced at conc 0.25", "result": "− (% SST5 radio-ligand binding displaced at cone (μM) −<40%)"}, {"measurement": "% SST5 radio-ligand binding displaced at conc 1.0", "result": "− (% SST5 radio-ligand binding displaced at cone (μM) −<40%)"}]}, {"smiles": "COC[C@H]1OC(OCc2ccc(Cl)cc2)[C@H](NC(=O)CN)[C@@H](OCc2ccc(-c3ccccc3)cc2)[C@@H]1O", "note": "(single isomer, unassigned) [Compound 172]", "values": [{"measurement": "% SST5 radio-ligand binding displaced at conc 0.25", "result": "− (% SST5 radio-ligand binding displaced at cone (μM) −<40%)"}, {"measurement": "% SST5 radio-ligand binding displaced at conc 1.0", "result": "− (% SST5 radio-ligand binding displaced at cone (μM) −<40%)"}]}, {"smiles": "COC[C@H]1O[C@H](OCc2ccc3ccccc3c2)[C@H](NC(=O)CCN)[C@@H](OC)[C@@H]1O", "note": "[Compound 5]", "values": [{"measurement": "% SST5 radio-ligand binding displaced at conc 50", "result": "− (% SST5 radio-ligand binding displaced at cone (μM) −<40%)"}, {"measurement": "% SST5 radio-ligand binding displaced at conc 250", "result": "+ (% SST5 radio-ligand binding displaced at cone (μM) 60>+>40%)"}, {"measurement": "% SST5 radio-ligand binding displaced at conc 500", "result": "++ (% SST5 radio-ligand binding displaced at conc (μM) >60%)"}]}, {"smiles": "COC[C@H]1O[C@H](OCc2ccc3ccccc3c2)[C@H](NC(=O)CCCN)[C@@H](OC)[C@@H]1O", "note": "[Compound 6]", "values": [{"measurement": "% SST5 radio-ligand binding displaced at conc 50", "result": "− (% SST5 radio-ligand binding displaced at cone (μM) −<40%)"}, {"measurement": "% SST5 radio-ligand binding displaced at conc 250", "result": "+ (% SST5 radio-ligand binding displaced at cone (μM) 60>+>40%)"}, {"measurement": "% SST5 radio-ligand binding displaced at conc 500", "result": "++ (% SST5 radio-ligand binding displaced at conc (μM) >60%)"}]}, {"smiles": "CO[C@H]1[C@H](O)[C@@H](COCc2ccc(Cl)cc2)O[C@@H](SC)[C@@H]1NC(=O)CN", "note": "[Compound 7]", "values": [{"measurement": "% SST5 radio-ligand binding displaced at conc 50", "result": "− (% SST5 radio-ligand binding displaced at cone (μM) −<40%)"}, {"measurement": "% SST5 radio-ligand binding displaced at conc 250", "result": "− (% SST5 radio-ligand binding displaced at cone (μM) −<40%)"}, {"measurement": "% SST5 radio-ligand binding displaced at conc 500", "result": "− (% SST5 radio-ligand binding displaced at cone (μM) −<40%)"}]}]}
